Source: PubChem BioAssay AID248 (DTP/NCI, 2004)
Toxic doses and inconclusive results are not listed. No stated cut-off is given here; in the data, active means T/C of 150% or more; inactive means T/C below 125%.

System: L1210 leukemia ip in BDF1 mice, survival T/C
Test: NCI In Vivo Anticancer Drug Screen. Data for tumor model L1210 Leukemia (intraperitoneal) in B6D2F1 (BDF1) mice
Conditions: higher = longer survival
Summary of the method: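 Tumor was transplanted into mice, which were then dosed with test compound or vehicle alone. Survival was recorded for each group, and the treated figure was expressed relative to the control figure.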

[1] = endpoint: mean survival time, dose: 50.0 mg/kg/injection, schedule: Q01DX009 (ip), vehicle: saline with Tween-80
[2] = endpoint: mean survival time, dose: 100.0 mg/kg/injection, schedule: Q01DX009 (ip), vehicle: saline with Tween-80
[3] = endpoint: mean survival time, dose: 100.0 mg/kg/injection, schedule: Q01DX009 (ip), vehicle: saline
[4] = endpoint: mean survival time, dose: 200.0 mg/kg/injection, schedule: Q01DX009 (ip), vehicle: saline
[5] = endpoint: mean survival time, dose: 400.0 mg/kg/injection, schedule: Q01DX009 (ip), vehicle: saline

Measured: T/C

O=CC(O)CO (centres undefined)
inactive: endpoint: mean survival time, dose: 62.5 mg/kg/injection, schedule: Q01DX009 (ip), vehicle: carboxymethylcellulose (CMC) 102 % of control | endpoint: mean survival time, dose: 108.0 mg/kg/injection, schedule: Q01DX Z (ip), vehicle: other 95 % of control | endpoint: mean survival time, dose: 125.0 mg/kg/injection, schedule: Q01DX001 (ip), vehicle: carboxymethylcellulose (CMC) 98 % of control | endpoint: mean survival time, dose: 125.0 mg/kg/injection, schedule: Q01DX009 (ip), vehicle: carboxymethylcellulose (CMC) 116 % of control | endpoint: mean survival time, dose: 180.0 mg/kg/injection, schedule: Q01DX Z (ip), vehicle: other 112 % of control | endpoint: mean survival time, dose: 250.0 mg/kg/injection, schedule: Q01DX001 (ip), vehicle: carboxymethylcellulose (CMC) 105 % of control | endpoint: mean survival time, dose: 250.0 mg/kg/injection, schedule: Q01DX009 (ip), vehicle: carboxymethylcellulose (CMC) 116 % of control | endpoint: mean survival time, dose: 300.0 mg/kg/injection, schedule: Q01DX Z (ip), vehicle: other 113 % of control | endpoint: mean survival time, dose: 500.0 mg/kg/injection, schedule: Q01DX001 (ip), vehicle: carboxymethylcellulose (CMC) 100 % of control | endpoint: mean survival time, dose: 500.0 mg/kg/injection, schedule: Q01DX009 (ip), vehicle: carboxymethylcellulose (CMC) 118 % of control | endpoint: mean survival time, dose: 500.0 mg/kg/injection, schedule: Q01DX Z (ip), vehicle: other 115 % of control | endpoint: mean survival time, dose: 833.0 mg/kg/injection, schedule: Q01DX Z (ip), vehicle: other 114 % of control | endpoint: mean survival time, dose: 1000.0 mg/kg/injection, schedule: Q01DX001 (ip), vehicle: carboxymethylcellulose (CMC) 110 % of control | endpoint: median survival time, dose: 352.0 mg/kg/injection, schedule: Q01DX005 (ip), vehicle: saline sonified 122 % of control | endpoint: median survival time, dose: 440.0 mg/kg/injection, schedule: Q01DX005 (ip), vehicle: other 118 % of control | endpoint: median survival time, dose: 440.0 mg/kg/injection, schedule: Q01DX005 (ip), vehicle: saline sonified 116 % of control | endpoint: median survival time, dose: 550.0 mg/kg/injection, schedule: Q01DX005 (ip), vehicle: saline sonified 122 % of control | endpoint: median survival time, dose: 688.0 mg/kg/injection, schedule: Q01DX005 (ip), vehicle: other 107 % of control | endpoint: median survival time, dose: 688.0 mg/kg/injection, schedule: Q01DX005 (ip), vehicle: saline sonified 111 % of control | endpoint: median survival time, dose: 860.0 mg/kg/injection, schedule: Q01DX005 (ip), vehicle: other 51 % of control | endpoint: median survival time, dose: 1053.0 mg/kg/injection, schedule: Q01DX001 (ip), vehicle: other 119 % of control | endpoint: median survival time, dose: 1053.0 mg/kg/injection, schedule: Q01DX001 (ip), vehicle: saline sonified 122 % of control | endpoint: median survival time, dose: 1170.0 mg/kg/injection, schedule: Q01DX001 (ip), vehicle: other 117 % of control | endpoint: median survival time, dose: 1170.0 mg/kg/injection, schedule: Q01DX001 (ip), vehicle: saline sonified 122 % of control | endpoint: median survival time, dose: 1300.0 mg/kg/injection, schedule: Q01DX001 (ip), vehicle: other 117 % of control | endpoint: median survival time, dose: 1300.0 mg/kg/injection, schedule: Q01DX001 (ip), vehicle: saline sonified 122 % of control | endpoint: median survival time, dose: 1444.0 mg/kg/injection, schedule: Q01DX001 (ip), vehicle: other 121 % of control | endpoint: median survival time, dose: 1444.0 mg/kg/injection, schedule: Q01DX001 (ip), vehicle: saline sonified 122 % of control | endpoint: median survival time, dose: 1604.0 mg/kg/injection, schedule: Q01DX001 (ip), vehicle: other 51 % of control | endpoint: median survival time, dose: 1782.0 mg/kg/injection, schedule: Q01DX001 (ip), vehicle: other 75 % of control

CSc1ccc(OC(=O)Nc2ccccc2F)cc1
inactive: [1] 108 % of control | [2] 103 % of control

OC(c1ccccc1)C1(O)C2CCC1C2 (centres undefined)
inactive: endpoint: mean survival time, dose: 75.0 mg/kg/injection, schedule: Q04DX002 (ip), vehicle: Klucel (hydroxypropylcellulose) (HPC) 96 % of control | endpoint: mean survival time, dose: 150.0 mg/kg/injection, schedule: Q04DX002 (ip), vehicle: Klucel (hydroxypropylcellulose) (HPC) 104 % of control | endpoint: mean survival time, dose: 300.0 mg/kg/injection, schedule: Q04DX002 (ip), vehicle: Klucel (hydroxypropylcellulose) (HPC) 96 % of control

O=C(O)C1CCCC1C(=O)O (centres undefined)
inactive: endpoint: mean survival time, dose: 75.0 mg/kg/injection, schedule: Q04DX003 (ip), vehicle: saline 94 % of control | endpoint: mean survival time, dose: 150.0 mg/kg/injection, schedule: Q04DX003 (ip), vehicle: saline 102 % of control | endpoint: mean survival time, dose: 300.0 mg/kg/injection, schedule: Q04DX003 (ip), vehicle: saline 95 % of control

COc1ccc(-c2cnc(C(N)=O)c(=O)[nH]2)cc1
inactive: endpoint: mean survival time, dose: 100.0 mg/kg/injection, schedule: Q04DX003 (ip), vehicle: saline with Tween-80 88 % of control | endpoint: mean survival time, dose: 200.0 mg/kg/injection, schedule: Q04DX003 (ip), vehicle: saline with Tween-80 95 % of control | endpoint: mean survival time, dose: 400.0 mg/kg/injection, schedule: Q04DX003 (ip), vehicle: saline with Tween-80 91 % of control

Cc1ccc([N+](=O)[O-])cc1NC(=O)Nc1ccc(C(=O)O)cc1
inactive: endpoint: mean survival time, dose: 100.0 mg/kg/injection, schedule: Q01DX009 (ip), vehicle: Klucel (hydroxypropylcellulose) (HPC) 90 % of control | endpoint: mean survival time, dose: 200.0 mg/kg/injection, schedule: Q01DX009 (ip), vehicle: Klucel (hydroxypropylcellulose) (HPC) 98 % of control | endpoint: mean survival time, dose: 400.0 mg/kg/injection, schedule: Q01DX009 (ip), vehicle: Klucel (hydroxypropylcellulose) (HPC) 104 % of control

CC(C)c1cccc(OS(=O)(=O)c2ccccc2[N+](=O)[O-])c1
inactive: endpoint: mean survival time, dose: 25.0 mg/kg/injection, schedule: Q01DX009 (ip), vehicle: saline with Tween-80 105 % of control | [1] 105 % of control | [2] 105 % of control | endpoint: mean survival time, dose: 100.0 mg/kg/injection, schedule: Q04DX003 (ip), vehicle: Klucel (hydroxypropylcellulose) (HPC) 93 % of control | endpoint: mean survival time, dose: 400.0 mg/kg/injection, schedule: Q04DX003 (ip), vehicle: Klucel (hydroxypropylcellulose) (HPC) 96 % of control

O=C(NN=C1CCCC1)c1ccccc1O
inactive: [3] 102 % of control | [4] 102 % of control | [5] 120 % of control

Cc1cccnc1NC1=NCCO1
inactive: [2] 100 % of control | endpoint: mean survival time, dose: 200.0 mg/kg/injection, schedule: Q01DX009 (ip), vehicle: saline with Tween-80 96 % of control | endpoint: mean survival time, dose: 400.0 mg/kg/injection, schedule: Q01DX009 (ip), vehicle: saline with Tween-80 93 % of control

Oc1cccc2ccc(N/N=C/c3ccc4cccnc4c3O)nc12
inactive: endpoint: mean survival time, dose: 100.0 mg/kg/injection, schedule: Q01DX001 (ip), vehicle: carboxymethylcellulose (CMC) 93 % of control | endpoint: mean survival time, dose: 200.0 mg/kg/injection, schedule: Q01DX001 (ip), vehicle: carboxymethylcellulose (CMC) 102 % of control | endpoint: mean survival time, dose: 400.0 mg/kg/injection, schedule: Q01DX001 (ip), vehicle: carboxymethylcellulose (CMC) 93 % of control

COc1ccc(OC)c(CC(Cl)(C#N)C#N)c1
inactive: endpoint: mean survival time, dose: 12.0 mg/kg/injection, schedule: Q01DX009 (ip), vehicle: Klucel (hydroxypropylcellulose) (HPC) 100 % of control | endpoint: mean survival time, dose: 25.0 mg/kg/injection, schedule: Q01DX009 (ip), vehicle: Klucel (hydroxypropylcellulose) (HPC) 102 % of control | endpoint: mean survival time, dose: 50.0 mg/kg/injection, schedule: Q01DX009 (ip), vehicle: Klucel (hydroxypropylcellulose) (HPC) 102 % of control | endpoint: mean survival time, dose: 200.0 mg/kg/injection, schedule: Q04DX003 (ip), vehicle: Klucel (hydroxypropylcellulose) (HPC) 105 % of control

CCOc1ccc(-c2nnc(Nc3ccc(S(=O)(=O)N4CCCCC4)cc3)s2)cc1
inactive: [2] 87 % of control | endpoint: mean survival time, dose: 100.0 mg/kg/injection, schedule: Q04DX002 (ip), vehicle: saline with Tween-80 96 % of control | endpoint: mean survival time, dose: 200.0 mg/kg/injection, schedule: Q04DX002 (ip), vehicle: saline with Tween-80 93 % of control | endpoint: mean survival time, dose: 400.0 mg/kg/injection, schedule: Q04DX002 (ip), vehicle: saline with Tween-80 90 % of control

CCCCNC(C)(C)C(SS)c1ccc(Cl)cc1 (centres undefined)
inactive: endpoint: mean survival time, dose: 50.0 mg/kg/injection, schedule: Q01DX009 (ip), vehicle: other 94 % of control | endpoint: mean survival time, dose: 100.0 mg/kg/injection, schedule: Q01DX009 (ip), vehicle: other 92 % of control

CC(=O)N(CC(=O)OCc1ccccc1)C(C)=O
inactive: [3] 110 % of control | [4] 103 % of control | [5] 105 % of control

O=c1[nH]c(=O)n(C2OC(CO)C(O)C2O)c2scnc12 (centres undefined)
inactive: endpoint: mean survival time, dose: 100.0 mg/kg/injection, schedule: Q01DX005 (ip), vehicle: saline 98 % of control | endpoint: mean survival time, dose: 200.0 mg/kg/injection, schedule: Q01DX005 (ip), vehicle: saline 100 % of control

O=C1C(Cl)=C(N2CC2)C(=O)c2ccccc21
inactive: endpoint: mean survival time, dose: 2.5 mg/kg/injection, schedule: Q01DX009 (ip), vehicle: Klucel (hydroxypropylcellulose) (HPC) 107 % of control | endpoint: mean survival time, dose: 5.0 mg/kg/injection, schedule: Q01DX009 (ip), vehicle: Klucel (hydroxypropylcellulose) (HPC) 93 % of control

CCC(C)NCCOC(=O)C(c1ccccc1)c1ccccc1 (centres undefined)
inactive: endpoint: mean survival time, dose: 75.0 mg/kg/injection, schedule: Q01DX001 (ip), vehicle: other 93 % of control

CC/C(C)=C\CC/C(C)=C/COc1cccc(C(C)=O)c1
inactive: endpoint: mean survival time, dose: 75.0 mg/kg/injection, schedule: Q01DX009 (ip), vehicle: carboxymethylcellulose (CMC) 94 % of control | endpoint: mean survival time, dose: 150.0 mg/kg/injection, schedule: Q01DX009 (ip), vehicle: carboxymethylcellulose (CMC) 90 % of control | endpoint: mean survival time, dose: 300.0 mg/kg/injection, schedule: Q01DX009 (ip), vehicle: carboxymethylcellulose (CMC) 92 % of control
